# Test results taken from publication PMC5908134, “Saccharomyces cerevisiae as a platform for assessing sphingolipid lipid kinase inhibitors” (PLoS ONE, 2018).
# “Also recorded” adds a separate entry of the source.
# Columns and labels:
# human SphK1 [1] = target: T1, human SphK1 (Homo sapiens, UniProt Q9NYA1); test: yeast growth rescue assay, strain CBY169 expressing human SphK1; assay type: cell-based; settings: strain CBY169 expressing human SphK1
# T1 construct: constructed by sub-cloning DNA encoding the indicated translational open reading frames into the pYES2-FLAG-URA expression vector; expressed in transfected cells; host or cells: Saccharomyces cerevisiae CBY169 or KYA1, plasmid pGAL-HsSPHK1
# T1 sequence (Q9NYA1 whole entry): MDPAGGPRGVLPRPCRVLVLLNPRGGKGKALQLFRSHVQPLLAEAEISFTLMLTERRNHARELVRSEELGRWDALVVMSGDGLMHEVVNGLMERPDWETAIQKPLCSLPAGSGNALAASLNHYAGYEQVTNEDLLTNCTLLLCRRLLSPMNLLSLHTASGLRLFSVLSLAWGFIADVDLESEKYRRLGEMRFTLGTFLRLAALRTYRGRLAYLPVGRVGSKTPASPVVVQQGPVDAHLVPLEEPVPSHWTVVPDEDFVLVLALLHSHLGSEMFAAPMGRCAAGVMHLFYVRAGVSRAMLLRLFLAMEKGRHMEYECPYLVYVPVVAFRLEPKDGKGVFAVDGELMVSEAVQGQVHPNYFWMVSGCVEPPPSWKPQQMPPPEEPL
# Description: (§1) The plasmids pGAL-HsSPHK1, pGAL-HsSPHK2, pGAL-MmSphk1, pGAL-MmSphk1L277M, pGAL-MmSphk2, pGAL-HsCERK and pGAL-SK2_MOD used in this study were constructed by sub-cloning DNA encoding the indicated translational open reading frames into the pYES2-FLAG-URA expression vector (provided by Dr. Cungui Mao). […] Excepting human and mouse SphK2, the DNA sequences are synthetic (from GeneWiz LLC (South Plainfield, NJ)) and were optimized for expression in S. cerevisiae.
# (§2) Yeast harboring plasmids were selected and maintained on synthetic complete media lacking uracil (SC-URA) with 2% glucose as the fermentable carbon source. After overnight growth at 30°C in this media, the cultures were diluted 1:100 into SC-URA media supplemented with 2% galactose and various concentrations of test inhibitor. After a further 24–48 hours incubation at 30°C, the extent of growth was assessed by measuring absorbance at 600 nm. […] Tubes were incubated in a rotating drum while plates were agitated using a plate mixer. A600 for 96-well plate cultures was determined using a Molecular Devices SpectraMax M5 plate reader. Test compounds were dissolved in DMSO at 40–50 mM and diluted into water containing 0.1% fatty acid free bovine serum albumin. In all cases, the DMSO concentration in the assay was less than 2% (v/v).
# human SphK2 [2] = target: T2, human SphK2 (Homo sapiens, UniProt Q9NRA0); test: yeast growth rescue assay, strain CBY169 expressing human SphK2; assay type: cell-based
# T2 construct: full length (wild type hSK2); expressed in transfected cells; host or cells: Saccharomyces cerevisiae CBY169 or KYA1, plasmid pGAL-HsSPHK2
# T2 sequence (Q9NRA0 1-618 isoform Q9NRA0-2): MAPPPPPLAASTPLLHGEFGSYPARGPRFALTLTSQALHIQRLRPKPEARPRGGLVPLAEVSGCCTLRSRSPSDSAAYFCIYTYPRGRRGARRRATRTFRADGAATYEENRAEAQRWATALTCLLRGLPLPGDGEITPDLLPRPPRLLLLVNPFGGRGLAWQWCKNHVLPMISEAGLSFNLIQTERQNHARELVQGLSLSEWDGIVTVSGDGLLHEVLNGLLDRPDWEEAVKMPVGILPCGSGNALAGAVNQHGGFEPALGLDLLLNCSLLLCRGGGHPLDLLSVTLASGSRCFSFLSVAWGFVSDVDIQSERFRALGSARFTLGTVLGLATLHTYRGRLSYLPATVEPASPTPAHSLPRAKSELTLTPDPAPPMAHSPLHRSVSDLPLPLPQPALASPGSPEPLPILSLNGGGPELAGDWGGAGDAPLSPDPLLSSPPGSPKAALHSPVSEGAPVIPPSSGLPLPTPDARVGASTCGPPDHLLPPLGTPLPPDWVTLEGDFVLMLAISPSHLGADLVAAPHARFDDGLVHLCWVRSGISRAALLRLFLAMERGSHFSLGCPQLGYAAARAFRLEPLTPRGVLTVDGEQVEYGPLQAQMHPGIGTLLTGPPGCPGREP
# Description: as §1
# human SphK1 [3] = target: T1, human SphK1; test: yeast growth rescue assay, strain KYA1 (PDR5 deleted) expressing human SphK1; assay type: cell-based
# Description: as §1, §2
# human SphK2 [4] = target: T2, human SphK2; test: yeast growth rescue assay, strain KYA1 (PDR5 deleted) expressing human SphK2; assay type: cell-based; settings: strain KYA1 expressing human SphK2
# Description: The yeast strains used in this study include JS1256 (MATa his3Δ1 leu2Δ0 met15Δ0 ura3Δ0) and CBY169 (MATα leu2-3,112 ura3-52 his4 trp1 rme1 dpl1Δ::TRP1 lcb3Δ::LEU2 lcb4Δ::kanMX lcb5Δ::kanMX) (the latter provided by Kyle Cunningham). The CBY169 strain was modified further by replacement of the PDR5 gene with a selectable marker (confers resistance to clonat) to generate strain KYA1 (MATα leu2-3,112 ura3-52 his4 trp1 rme1 dpl1Δ::TRP1 lcb3Δ::LEU2 lcb4Δ::kanMX lcb5Δ::kanMX pdr5Δ::natMX).
# The plasmids pGAL-HsSPHK1, pGAL-HsSPHK2, pGAL-MmSphk1, pGAL-MmSphk1L277M, pGAL-MmSphk2, pGAL-HsCERK and pGAL-SK2_MOD used in this study were constructed by sub-cloning DNA encoding the indicated translational open reading frames into the pYES2-FLAG-URA expression vector (provided by Dr. Cungui Mao). The encoded proteins all have an amino terminal FLAG epitope tag ([…]) and their expression is under the control of the GAL1,10 promoter. Excepting human and mouse SphK2, the DNA sequences are synthetic (from GeneWiz LLC (South Plainfield, NJ)) and were optimized for expression in S. cerevisiae.
# yeast strain CBY169 = test: toxicity for yeast (growth of strains without lipid kinase expression)
# Protocol: as §2
# The salient limitations of the yeast assay are those of any cell-based assay. Namely, the assay reports EC50 values rather than Km, Vmax or kcat values of inhibitors, test compounds must not be markedly cytotoxic at the concentrations tested and compounds must accumulate to some extent in the yeast. Cytotoxicity is readily discerned by testing compounds for an effect on growth of strains without lipid kinase expression.
# mouse SphK2 = target: T3, mouse SphK2 (Mus musculus, UniProt Q9JIA7); test: yeast growth rescue assay, mouse SphK2 (CBY169 and KYA1 strains); assay type: cell-based; settings: both the CBY169 and KYA1 strains
# T3 sequence (Q9JIA7 1-617): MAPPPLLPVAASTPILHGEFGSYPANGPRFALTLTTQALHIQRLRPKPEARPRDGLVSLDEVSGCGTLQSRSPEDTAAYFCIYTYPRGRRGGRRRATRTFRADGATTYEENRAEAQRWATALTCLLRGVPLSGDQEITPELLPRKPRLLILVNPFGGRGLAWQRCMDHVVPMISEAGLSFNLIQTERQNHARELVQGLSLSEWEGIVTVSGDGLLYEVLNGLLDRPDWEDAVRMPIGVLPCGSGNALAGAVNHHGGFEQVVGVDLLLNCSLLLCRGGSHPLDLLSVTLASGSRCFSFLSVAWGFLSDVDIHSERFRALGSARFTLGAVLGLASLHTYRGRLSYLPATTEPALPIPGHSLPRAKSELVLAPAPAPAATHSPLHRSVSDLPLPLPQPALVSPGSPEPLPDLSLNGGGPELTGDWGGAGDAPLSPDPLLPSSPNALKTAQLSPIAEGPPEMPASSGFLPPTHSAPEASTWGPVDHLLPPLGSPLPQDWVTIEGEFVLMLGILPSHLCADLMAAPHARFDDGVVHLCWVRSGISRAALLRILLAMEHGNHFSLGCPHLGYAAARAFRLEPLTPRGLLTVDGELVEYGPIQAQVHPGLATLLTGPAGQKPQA
# Description: as §1, §2
smiles,measurement,setting,value
O=C(NCc1ccncc1)C12CC3CC(C1)CC(c1ccc(Cl)cc1)(C3)C2 [ABC294640],rescue of growth in galactose media,human SphK1 [1],failed to rescue growth
same,rescue of growth,human SphK2 [2],failed to rescue growth; also recorded: failure to detect activity
same,rescue of growth,human SphK1 [3],failed to rescue growth
same,rescue of growth,human SphK2 [4],failed to rescue growth; also recorded: failure to detect activity
same,rescue of growth,human SphK2 [4]; concentrations up to 100 μM,failed to rescue growth
same,cytotoxicity for yeast,yeast strain CBY169,not cytotoxic
same,activity (rescue of growth),mouse SphK2,failure to detect activity
